As usually defined, the inhibition is the drop in the measured response relative to a control, in per cent. A word on the IC50: it is the concentration at which inhibition is half-maximal.

SMILES strings stand for the structures. The source made the active and inactive calls. No cut-off for these calls is given here.

In data set [1] the test system is MCF7. Put plainly: Induction of apoptosis in human MCF7 cells assessed as late apoptotic cells at 20 uM incubated for 48 hrs by AnnexinV-FITC/propidium iodide staining based flow cytometry analysis (reference value: 0.015 %). The data set is classed as functional.
The test system of data set [2] is MCF7. Briefly: Induction of apoptosis in human MCF7 cells assessed as appearance of rounded cells at 10 uM incubated for 48 hrs by AO/EB staining based fluorescence microscopic analysis. In kind it is functional, cell-based.
The subject of data set [3] is MCF7. Briefly: Induction of apoptosis in human MCF7 cells assessed as early apoptotic cells at 5 uM incubated for 48 hrs by AnnexinV-FITC/propidium iodide staining based flow cytometry analysis (reference value: 0.28 %). The data set is classed as functional. (A flow cytometer gives signals particle by particle.)
The subject of data set [4] is MCF7. Briefly: Induction of apoptosis in human MCF7 cells assessed as early apoptotic cells at 20 uM incubated for 48 hrs by AnnexinV-FITC/propidium iodide staining based flow cytometry analysis (reference value: 0.28 %). In kind it is functional.
Data set [5] deals with MCF7. Put plainly: Induction of apoptosis in human MCF7 cells assessed as early apoptotic cells at 10 uM incubated for 48 hrs by AnnexinV-FITC/propidium iodide staining based flow cytometry analysis (reference value: 0.28 %). The data set is classed as functional.
In data set [6] the test system is MCF7. Put plainly: cells. The data set is classed as functional. The settings on record: Homo sapiens, time 48 hrs.
Description: Inhibition of cell migration in human MCF7 cells assessed as reduction in cell migration at 1 uM measured for 48 hrs by wound healing assay based microscopic analysis (Rvb = 70.25%)
The target in data set [7] is T1, DNA topoisomerase 1 (Homo sapiens) (UniProt P11387).
T1 sequence (whole entry): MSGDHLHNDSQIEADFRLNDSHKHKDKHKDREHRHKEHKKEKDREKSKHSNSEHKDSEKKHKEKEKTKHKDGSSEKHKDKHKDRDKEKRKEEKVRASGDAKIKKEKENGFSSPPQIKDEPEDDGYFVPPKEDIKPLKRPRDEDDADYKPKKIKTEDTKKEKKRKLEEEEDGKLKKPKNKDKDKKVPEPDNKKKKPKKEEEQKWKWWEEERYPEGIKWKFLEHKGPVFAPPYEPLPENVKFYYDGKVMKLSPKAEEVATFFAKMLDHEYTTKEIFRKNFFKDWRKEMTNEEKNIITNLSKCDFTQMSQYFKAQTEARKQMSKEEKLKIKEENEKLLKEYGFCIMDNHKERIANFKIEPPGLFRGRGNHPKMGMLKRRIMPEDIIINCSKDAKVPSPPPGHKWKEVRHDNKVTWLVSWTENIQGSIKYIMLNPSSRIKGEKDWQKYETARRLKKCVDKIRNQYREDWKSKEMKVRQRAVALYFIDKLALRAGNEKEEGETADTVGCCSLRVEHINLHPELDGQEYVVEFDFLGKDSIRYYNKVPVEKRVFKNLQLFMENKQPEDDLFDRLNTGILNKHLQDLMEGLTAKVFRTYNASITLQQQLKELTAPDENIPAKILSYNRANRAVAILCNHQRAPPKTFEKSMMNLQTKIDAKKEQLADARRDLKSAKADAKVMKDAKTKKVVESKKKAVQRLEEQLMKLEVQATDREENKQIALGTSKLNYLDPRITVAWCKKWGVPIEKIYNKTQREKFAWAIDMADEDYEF
Put plainly: Inhibition of human topoisomerase 1 assessed as relaxation of pBR322 plasmid DNA at 100 uM measured after 30 mins by agarose gel electrophoresis analysis.

Another data set concerns the target Histone deacetylase. Briefly: Inhibition of HDAC in human HeLa nuclear extract measured after 30 mins by fluorescence based assay. In kind it is cell-free.
For data set [8], the system named is MCF7. Briefly: Induction of apoptosis in human MCF7 cells assessed as viable cells at 20 uM incubated for 48 hrs by AnnexinV-FITC/propidium iodide staining based flow cytometry analysis (reference value: 99.2 %). The settings on record: read-out: Activity. In kind it is functional.
The test system of data set [9] is MCF7. Put plainly: Induction of apoptosis in human MCF7 cells assessed as viable cells at 10 uM incubated for 48 hrs by AnnexinV-FITC/propidium iodide staining based flow cytometry analysis (reference value: 99.2 %). In kind it is functional. The following applies: read-out: Activity.
Data set [10] relates to MCF7. Briefly: Induction of apoptosis in human MCF7 cells assessed as necrotic cells at 10 uM incubated for 48 hrs by AnnexinV-FITC/propidium iodide staining based flow cytometry analysis (reference value: 0.55 %). In kind it is functional.
Data set [11] has as its target DNA topoisomerase 2-alpha (Homo sapiens) (UniProt P11388). Briefly: Poison activity at human topoisomerase 2 assessed as stabilization of enzyme-DNA cleavage complex by measuring linear DNA formation at 100 uM incubated for 6 mins by EtBr staining based UV light analysis.
The subject of data set [12] is MCF7. Put plainly: cells. The following applies: Homo sapiens, time 48 hrs. The data set is classed as functional. The source holds these as a separate data set.
Description: Inhibition of cell migration in human MCF7 cells assessed as reduction in cell migration at 2.5 uM measured for 48 hrs by wound healing assay based microscopic analysis (Rvb = 70.25%)
The next data set relates to NIH3T3. Put plainly: Antiproliferative activity against mouse 3T3 cells assessed as reduction in cell viability at 100 uM measured for 48 hrs by MTT assay relative to control. In kind it is toxicity, cell-based. The following applies: nih3t3, 48 h. On the technique in general: Formazan colour is commonly taken as a measure of viable cells.
Data set [13] concerns MCF7. Briefly: Induction of apoptosis in human MCF7 cells assessed as late apoptotic cells at 5 uM incubated for 48 hrs by AnnexinV-FITC/propidium iodide staining based flow cytometry analysis (reference value: 0.015 %). In kind it is functional.
The target of data set [14] is DNA topoisomerase 2-alpha (Homo sapiens) (UniProt P11388). Put plainly: Inhibition of human topoisomerase 2 assessed as relaxation of pBR322 plasmid DNA at 100 uM measured after 30 mins by ethidium bromide staining based UV transilluminator analysis.
DNA topoisomerase 2-alpha (Homo sapiens), sequence (P11388 whole entry): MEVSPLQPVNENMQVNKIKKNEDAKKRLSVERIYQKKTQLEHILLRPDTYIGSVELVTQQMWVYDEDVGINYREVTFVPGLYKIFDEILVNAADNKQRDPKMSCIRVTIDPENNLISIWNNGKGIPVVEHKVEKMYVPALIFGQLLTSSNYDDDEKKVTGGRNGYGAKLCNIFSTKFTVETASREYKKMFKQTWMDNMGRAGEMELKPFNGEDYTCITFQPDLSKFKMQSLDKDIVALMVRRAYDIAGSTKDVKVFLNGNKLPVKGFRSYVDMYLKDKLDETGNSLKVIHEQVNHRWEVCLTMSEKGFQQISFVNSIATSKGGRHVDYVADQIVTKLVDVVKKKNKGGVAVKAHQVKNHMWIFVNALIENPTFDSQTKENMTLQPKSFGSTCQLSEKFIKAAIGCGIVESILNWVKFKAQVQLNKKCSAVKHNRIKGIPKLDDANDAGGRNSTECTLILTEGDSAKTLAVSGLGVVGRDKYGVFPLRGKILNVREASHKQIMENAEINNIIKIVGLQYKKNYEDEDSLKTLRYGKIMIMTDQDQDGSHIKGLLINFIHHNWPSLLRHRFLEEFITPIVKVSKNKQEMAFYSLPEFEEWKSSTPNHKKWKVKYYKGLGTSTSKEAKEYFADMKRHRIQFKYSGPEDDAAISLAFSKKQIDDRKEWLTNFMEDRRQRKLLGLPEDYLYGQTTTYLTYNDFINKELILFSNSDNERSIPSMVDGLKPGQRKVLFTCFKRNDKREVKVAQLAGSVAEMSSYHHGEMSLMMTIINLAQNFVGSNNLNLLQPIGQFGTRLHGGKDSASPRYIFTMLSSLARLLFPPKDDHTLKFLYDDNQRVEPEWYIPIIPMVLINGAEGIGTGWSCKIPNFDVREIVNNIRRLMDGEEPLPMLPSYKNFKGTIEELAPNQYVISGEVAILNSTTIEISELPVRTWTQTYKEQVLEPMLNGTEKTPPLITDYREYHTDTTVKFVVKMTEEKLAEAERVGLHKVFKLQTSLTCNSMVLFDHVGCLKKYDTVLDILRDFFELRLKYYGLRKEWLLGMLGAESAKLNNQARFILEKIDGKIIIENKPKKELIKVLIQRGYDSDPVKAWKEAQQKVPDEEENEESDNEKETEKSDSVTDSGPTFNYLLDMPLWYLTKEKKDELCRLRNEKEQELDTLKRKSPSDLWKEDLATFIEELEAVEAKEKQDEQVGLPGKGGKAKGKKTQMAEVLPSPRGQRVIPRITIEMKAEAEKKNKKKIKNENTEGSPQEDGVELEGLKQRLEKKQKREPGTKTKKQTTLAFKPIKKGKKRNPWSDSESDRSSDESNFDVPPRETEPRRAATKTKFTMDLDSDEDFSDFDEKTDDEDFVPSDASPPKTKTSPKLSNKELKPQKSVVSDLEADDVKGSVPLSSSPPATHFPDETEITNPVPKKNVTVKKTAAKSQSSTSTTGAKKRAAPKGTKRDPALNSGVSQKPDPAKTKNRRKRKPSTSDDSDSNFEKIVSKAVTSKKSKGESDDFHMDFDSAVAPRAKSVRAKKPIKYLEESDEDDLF
The subject of data set [15] is MCF7. Briefly: Induction of apoptosis in human MCF7 cells assessed as cell shrinkage at 10 uM incubated for 48 hrs by AO/EB staining based fluorescence microscopic analysis. The data set is classed as functional.
The test system of a further data set is U-937. Briefly: Antiproliferative activity against human U-937 cells assessed as reduction in cell viability measured for 48 hrs by MTT assay. In kind it is functional, cell-based. The following applies: U-937, 48 h.
In data set [16] the test system is MCF7. Briefly: Induction of apoptosis in human MCF7 cells assessed as viable cells at 5 uM incubated for 48 hrs by AnnexinV-FITC/propidium iodide staining based flow cytometry analysis (reference value: 99.2 %). The following applies: read-out: Activity. In kind it is functional.
Another data set concerns MGC-803. Briefly: Antiproliferative activity against human MGC-803 cells assessed as reduction in cell viability measured for 48 hrs by MTT assay. In kind it is functional, cell-based. The settings on record: MGC-803, 48 h.
Data set [17] relates to MCF7. Briefly: Induction of apoptosis in human MCF7 cells assessed as cell depletion at 10 uM incubated for 48 hrs by AO/EB staining based fluorescence microscopic analysis. The data set is classed as functional.
Data set [18] has as its system MCF7. Briefly: Inhibition of cell migration in human MCF7 cells assessed as reduction in cell migration at 5 uM measured for 48 hrs by wound healing assay based microscopic analysis (reference value: 70.25%). In kind it is functional.
The subject of data set [19] is MCF7. Briefly: Induction of apoptosis in human MCF7 cells assessed as late apoptotic cells at 10 uM incubated for 48 hrs by AnnexinV-FITC/propidium iodide staining based flow cytometry analysis (reference value: 0.015 %). The data set is classed as functional.
For data set [20], the system named is MCF7. Put plainly: Induction of apoptosis in human MCF7 cells assessed as necrotic cells at 5 uM incubated for 48 hrs by AnnexinV-FITC/propidium iodide staining based flow cytometry analysis (reference value: 0.55 %). The data set is classed as functional.
In data set [21] the test system is MCF7. Put plainly: Induction of apoptosis in human MCF7 cells assessed as necrotic cells at 20 uM incubated for 48 hrs by AnnexinV-FITC/propidium iodide staining based flow cytometry analysis (reference value: 0.55 %). The data set is classed as functional.
The subject of data set [22] is MCF7. Put plainly: Antiproliferative activity against human MCF7 cells assessed as reduction in cell viability measured for 48 hrs by MTT assay. The data set is classed as functional, cell-based. The following applies: MCF7, 48 h.

As for `O=C(CCCCSc1nc2c([nH]c3ccccc32)c(=O)[nH]1)NO`, the Activity was 24.9% with MCF7 [1]; 10.4% in the data set on MCF7 [3]; 29% in the data set on MCF7 [4]; 26.6% in the data set on MCF7 [5]; 0.67% in the data set on MCF7 [10]; 7.62% with NIH3T3. In addition, the Activity in the data set with MCF7 [13] is reported as 5.88%; in the data set with MCF7 [19] it was 12.1%; in the data set on MCF7 [20], 0.3%; in the data set with MCF7 [21] it was 0.54%. The outcome (with MCF7 [2]; in [11]; in the data set on MCF7 [15]; with MCF7 [17]) was Active. Also, the inhibition at 1 µM in the data set with MCF7 [6] was 58.5%. Moreover, the “inhibition (active/inactive call)” value in data set [7] was “Active”. The 50% inhibitory concentration (IC50) on Histone deacetylase was found to be 4.67 µM; in the data set on U-937, 28.5 µM; in the data set with MGC-803 it was 9.59 µM. Moreover, the viability at 20 µM with MCF7 [8] stood at 45.5%. Also, the viability at 10 µM with MCF7 [9] was determined as 60.6%. In the data set with MCF7 [12], this compound displayed an inhibition at 2.5 µM of 32.3%. Further, the “topoisomerase II inhibition (active/inactive)” value in data set [14] is “Active”. For the same compound, the viability at 5 µM in the data set with MCF7 [16] stood at 83.4%. Further, in the data set with MCF7 [18], the inhibition at 5 µM is 19.3%.
As to `O=C(CCCCCCC(=O)Nc1ccccc1)NO` [VORINOSTAT], the Activity in the data set on MCF7 [5] turned out to be 35.2%; with MCF7 [10], 0.41%; in the data set with NIH3T3, 14.98%; in the data set on MCF7 [19], 19.7%. For the same compound, the viability at 10 µM with MCF7 [9] came to 44.7%. Besides, the IC50 in the data set on U-937 and in the data set with MGC-803 was 1.58 µM throughout.
As to `COc1cc([C@@H]2c3cc4c(cc3[C@@H](O[C@@H]3O[C@@H]5CO[C@@H](C)O[C@H]5[C@H](O)[C@H]3O)[C@H]3COC(=O)[C@H]23)OCO4)cc(OC)c1O` [ETOPOSIDE], the Activity is on record as 4.41% in the data set with MCF7 [5], 0.37% in the data set on MCF7 [10], 21.47% in the data set on NIH3T3 and 2.48% in the data set on MCF7 [19]. For the same compound, 1 µM produced 64.7% inhibition with MCF7 [6]. The viability at 10 µM in the data set with MCF7 [9] was found to be 92.7%. The result in data set [11] was Active. In addition, in the data set with MCF7 [12], the inhibition at 2.5 µM was 47.1%. The IC50 in the data set with U-937 came to 22.9 µM; in the data set on MGC-803 it was 10.8 µM; with MCF7 [22] it was 29.7 µM.
Turning to `CCn1c(SCCCCC(=O)NO)nc2c([nH]c3ccccc32)c1=O`, the Activity is recorded as 17.1% in the data set on MCF7 [1]; 4.86% with MCF7 [3]; 28.8% with MCF7 [4]; 14.1% in the data set on MCF7 [5]; 0.3% with MCF7 [10]; 38.7% in the data set on NIH3T3. Also, the Activity with MCF7 [13] stood at 1.16%; in the data set with MCF7 [19], 6.9%; in the data set with MCF7 [20] it was 0.6%; in the data set with MCF7 [21] it was 0.48%. The result in the data set on MCF7 [2], in the data set with MCF7 [15] and in the data set with MCF7 [17] was Active. Besides, the inhibition at 1 µM in the data set with MCF7 [6] was 65.4%. The “inhibition (active/inactive call)” value in data set [7] is “Active”. Besides, the IC50 at Histone deacetylase was found to be 5.9 µM; in the data set on U-937, 24.6 µM; in the data set with MGC-803, 12.3 µM; in the data set with MCF7 [22], 18.3 µM. Moreover, the viability at 20 µM with MCF7 [8] is 53.7%. Also, the viability at 10 µM with MCF7 [9] was determined as 78.7%. Moreover, the inhibition at 2.5 µM in the data set with MCF7 [12] is 56.4%. Besides, the “topoisomerase II inhibition (active/inactive)” value in data set [14] was “Active”. Besides, the viability at 5 µM in the data set on MCF7 [16] came out at 93.4%. Moreover, in the data set on MCF7 [18], the inhibition at 5 µM worked out at 29.7%.

Values taken from ChEMBL document CHEMBL5346940, “Design, synthesis and biological evaluation of dual Topo II/HDAC inhibitors bearing pyrimido[5,4-b]indole and pyrazolo[3,4-d]pyrimidine motifs” (Eur J Med Chem, 2023).
